Results on 25 compounds are retold here after patent US20240190855A1 (Relay Therapeutics, Inc., priority 2021, published 2024).

This experiment concerns the target T1, CDK2/Cyclin E complex (Homo sapiens, UniProt P24941).
T1 construct: purchased Eurofins 14-475
Nature of the experiment: CDK2/Cyclin E fluorescence-based microfluidic mobility shift assay (CDK2 Biochemical Caliper Assay). The settings on record: read-out: Biochemical CDK2/CyclinE Caliper IC50. The essentials: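 Wild-type CDK2/Cyclin E was preincubated with compound and ATP for 30 min at RT before the 5-FAM-QSPKKG peptide was added. Final concentrations were 0.1 nM enzyme, 2000 uM ATP, 1.5 uM peptide and 1% DMSO. After 20 hr at RT and EDTA stop, substrate conversion was read by microfluidic mobility shift over an 11-point, 3-fold dilution series.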

Regarding `CC(C)NC(=O)O[C@H]1CO[C@@H](c2cc(Nc3nccn4nc(COC(F)F)cc34)n[nH]2)C1` [Example 667], the IC50 is ≤ 100 nM.

For the compound `COCc1cc2c(Nc3cc([C@H]4C[C@@H](OC(=O)NC5(COC)CC5)CO4)[nH]n3)nccn2n1` [Example 668], the IC50 is ≤ 100 nM.

As to `CC(C)NC(=O)O[C@H]1CO[C@@H](c2cc(Nc3nccn4nc(CN5CCOCC5)cc34)n[nH]2)C1` [Example 669], the IC50 is ≤ 100 nM.

Regarding `COCc1cc(C(=O)Nc2ncc([C@H]3C[C@@H](COC(=O)NC(C)C)C3)s2)n(C)n1` [Example 670], the IC50 was ≤ 100 nM.

As to `COCc1cc2c(Nc3cc([C@H]4C[C@@H](Oc5nncn5C(C)C)CO4)[nH]n3)nccn2n1` [Example 671], the IC50 was 100 to 250 nM.

Regarding `CC(C)NC(=O)O[C@@H]1CC[C@H](c2cc(NC(=O)c3cc(CN4CC(F)(F)C4)nn3C)n[nH]2)C1` [Example 672], the IC50 is ≤ 100 nM.

As for `CC(C)NC(=O)O[C@H]1CO[C@@H](c2cc(Nc3nccn4nc(CN5CCC5)cc34)n[nH]2)C1` [Example 673], the IC50 was ≤ 100 nM.

`COCc1cc2c(Nc3cc([C@H]4C[C@@H](OC(=O)NC5(C)CCC5)CO4)[nH]n3)nccn2n1` [Example 674]: the IC50 was ≤ 100 nM.

Turning to `CC[C@H](C)NC(=O)O[C@H]1CO[C@@H](c2cc(Nc3nccn4nc(COC)cc34)n[nH]2)C1` [Example 675], the IC50 is ≤ 100 nM.

`CC(C)NC(=O)O[C@H]1CO[C@@H](c2cc(Nc3nccn4nc(CN5CCCC5)cc34)n[nH]2)C1` [Example 676]: the IC50 is ≤ 100 nM.

As for `COCc1cc2c(Nc3cc([C@H]4C[C@@H](OC(=O)N[C@H]5CC5(C)C)CO4)[nH]n3)nccn2n1` [Example 677], the IC50 is ≤ 100 nM.

Regarding `COCc1cc2c(Nc3cc([C@H]4C[C@@H](OC(=O)NC5(c6cnn(C)c6)CC5)CO4)[nH]n3)nccn2n1` [Example 678], the IC50 was in the range of 100 to 250 nM.

As for `COCc1cc2c(Nc3cc([C@H]4C[C@@H](OC(=O)N[C@@H]5CC5(C)C)CO4)[nH]n3)nccn2n1` [Example 679], the IC50 is ≤ 100 nM.

Turning to `COCc1cc2c(Nc3cc([C@H]4C[C@@H](OC(=O)NC5(CF)CC5)CO4)[nH]n3)nccn2n1` [Example 680], the IC50 is ≤ 100 nM.

As for `COCc1nc2ccnc(Nc3cc([C@H]4C[C@@H](OC(=O)NC5(C)CC5)CO4)[nH]n3)c2s1` [Example 681], the IC50 is ≤ 100 nM.

Consider `COCc1nc2ccnc(Nc3cc([C@H]4C[C@@H](OC(=O)NC5(COC)CC5)CO4)[nH]n3)c2s1` [Example 682], for which the IC50 is ≤ 100 nM.

On to `COCc1cc2c(Nc3cc([C@H]4C[C@@H](OC(=O)NC5COC5)CO4)[nH]n3)nccn2n1` [Example 683], for which the IC50 fell in the range of 250 to 1000 nM.

As to `COCc1cc2c(Nc3cc([C@H]4C[C@@H](OC(=O)NC56CCC(CC5)CC6)CO4)[nH]n3)nccn2n1` [Example 684], the IC50 is ≤ 100 nM.

Take `COCc1cc2c(Nc3cc([C@H]4C[C@@H](OC(=O)N[C@H](C)C5(C)COC5)CO4)[nH]n3)nccn2n1` [Example 685]: the IC50 was in the range of 1000 to 100000 nM.

Consider `COCc1cc2c(Nc3cc([C@H]4C[C@@H](OC(=O)N[C@@H](C)C5COC5)CO4)[nH]n3)nccn2n1` [Example 686], for which the IC50 fell in the range of 100 to 250 nM.

In the case of `COCc1cc2c(Nc3cc([C@H]4C[C@@H](OC(=O)N[C@H]5C[C@@H]5C)CO4)[nH]n3)nccn2n1` [Example 687], the IC50 was ≤ 100 nM.

Take `COCc1cc2c(Nc3cc([C@H]4C[C@@H](OC(=O)N[C@@H](C)C5(C)COC5)CO4)[nH]n3)nccn2n1` [Example 688]: the IC50 is 100 to 250 nM.

On to `COCc1cc(C(=O)Nc2cc([C@H]3C[C@@H](COc4[nH]ncc4C(C)C)C3)[nH]n2)n(C)n1` [Example 689], for which the IC50 is ≤ 100 nM.

Take `COCc1cc2c(Nc3cc([C@H]4C[C@@H](COc5nncn5C5(C)CC5)C4)[nH]n3)nccn2n1` [Example 690]: the IC50 was ≤ 100 nM.

Regarding `COCc1cc(C(=O)Nc2cc([C@H]3C[C@@H](COc4[nH]ncc4C(C)(C)C)C3)[nH]n2)n(C)n1` [Example 691], the IC50 was ≤ 100 nM.
